Counter-ions that a name gives are not always drawn.
target: T1, recombinant human beta tryptase (Homo sapiens, UniProt P20231); test: beta-Tryptase inhibition, chromogenic enzyme assay (substrate S2366, read at 405 nm); format: biochemical; conditions: Ki calculated from IC50: Ki=IC50/(1+[Substrate]/Km); 0.5 mM substrate, room temperature; read-out: Tryptase Ki
T1 construct: made in house; host or cells: yeast cells
Outline: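 Recombinant human beta tryptase (yeast-expressed; native lung enzyme also used), 50 ng/mL final, with 0.5 mM (2×Km) chromogenic substrate S2366; 30 min in the dark, room temperature, read at 405 nm. Compounds at 0.01-10 μM in duplicate for IC50; Ki=IC50/(1+[S]/Km).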

T1 sequence (P20231 31-275): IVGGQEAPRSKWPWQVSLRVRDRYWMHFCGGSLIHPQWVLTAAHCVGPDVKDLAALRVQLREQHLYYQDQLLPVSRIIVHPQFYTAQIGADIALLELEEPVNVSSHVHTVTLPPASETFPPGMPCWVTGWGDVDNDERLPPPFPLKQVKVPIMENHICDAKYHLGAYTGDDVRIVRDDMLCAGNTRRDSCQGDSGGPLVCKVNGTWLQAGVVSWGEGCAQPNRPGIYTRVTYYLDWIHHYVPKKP

| Ki [nM] | Compound |
| --- | --- |
| 11 | COCCn1cc(C(=O)N2CCC(c3cc(CN)ccc3F)CC2)c2c(-c3cncc(Cl)c3)cccc21 [Example 65, [4-(5-Aminomethyl-2-fluoro-phenyl)-piperidin-1-yl]-[4-(5-chloro-pyridin-3-yl)-1-(2-methoxy-ethyl)-1H-indol-3-yl]-methanone dihydrochloride] |
| 7 | COCCn1cc(C(=O)N2CCC(c3cc(CN)ccc3F)CC2)c2c(-c3cccnc3)cccc21 [Example 73, [4-(5-Aminomethyl-2-fluoro-phenyl)-piperidin-1-yl]-[1-(2-methoxy-ethyl)-4-pyridin-3-yl-1H-indol-3-yl]-methanone dihydrochloride] |
| 26 | COCCn1cc(C(=O)N2CCC(c3cc(CN)ccc3F)CC2)c2c(-c3ccccn3)cccc21 [Example 74, [4-(5-Aminomethyl-2-fluoro-phenyl)-piperidin-1-yl]-[1-(2-methoxy-ethyl)-4-pyridin-2-yl-1H-indol-3-yl]-methanone dihydrochloride] |
| 117 | NCc1ccc(F)c(C2CCN(C(=O)c3cn(CCOC(F)(F)F)c4cccc(-c5ccncc5)c34)CC2)c1 [Example 78, [4-(5-Aminomethyl-2-fluoro-phenyl)-piperidin-1-yl]-[4-pyridin-4-yl-1-(2-trifluoromethoxy-ethyl)-1H-indol-3-yl]-methanone dihydrochloride] |
| 6 | COCCn1cc(C(=O)N2CCC(c3cc(CN)ccc3F)CC2)c2c(-c3cncc(C)c3)cccc21 [Example 82, [4-(5-Aminomethyl-2-fluoro-phenyl)-piperidin-1-yl]-[1-(2-methoxy-ethyl)-4-(5-methyl-pyridin-3-yl)-1H-indol-3-yl]-methanone dihydrochloride] |
| 5 | COCCn1cc(C(=O)N2CCC(c3cc(CN)ccc3F)CC2)c2c(-c3ccnc(C)c3)cccc21 [Example 83, [4-(5-Aminomethyl-2-fluoro-phenyl)-piperidin-1-yl]-[1-(2-methoxy-ethyl)-4-(2-methyl-pyridin-4-yl)-1H-indol-3-yl]-methanone dihydrochloride] |
| 22 | COCCn1cc(C(=O)N2CCC(c3cc(CN)ccc3F)CC2)c2c(-c3cncc(F)c3)cccc21 [Example 84, [4-(5-Aminomethyl-2-fluoro-phenyl)-piperidin-1-yl]-[4-(5-fluoro-pyridin-3-yl)-1-(2-methoxy-ethyl)-1H-indol-3-yl]-methanone dihydrochloride] |
| 9 | COCCn1cc(C(=O)N2CCC(c3cc(CN)ccc3F)CC2)c2c(-c3ccnc(OC)c3)cccc21 [Example 85, [4-(5-Aminomethyl-2-fluoro-phenyl)-piperidin-1-yl]-[1-(2-methoxy-ethyl)-4-(2-methoxy-pyridin-4-yl)-1H-indol-3-yl]-methanone dihydrochloride] |
| 11 | COCCn1cc(C(=O)N2CCC(c3cc(CN)ccc3F)CC2)c2c(-c3ccnn3C)cccc21 [Example 89, [4-(5-Aminomethyl-2-fluoro-phenyl)-piperidin-1-yl]-[1-(2-methoxy-ethyl)-4-(2-methyl-2H-pyrazol-3-yl)-1H-indol-3-yl]-methanone dihydrochloride] |
| 160 | CCCn1cc(-c2cccc3c2c(C(=O)N2CCC(c4cc(CN)ccc4F)CC2)cn3CCOC(F)(F)F)cn1 [Example 93, [4-(5-Aminomethyl-2-fluoro-phenyl)-piperidin-1-yl]-[4-(1-propyl-1H-pyrazol-4-yl)-1-(2-trifluoromethoxy-ethyl)-1H-indol-3-yl]-methanone dihydrochloride] |

same assay, conditions: Tryptase Ki (nM), Ki calculated from IC50: Ki=IC50/(1+[Substrate]/Km); 0.5 mM substrate, room temperature

| Compound | Ki [nM] |
| --- | --- |
| COCCn1cc(C(=O)N2CCC(c3cc(CN)ccc3F)CC2)c2c(-c3cc(Cl)cc(Cl)c3)cccc21 [Example 66, 4-(5-Aminomethyl-2-fluoro-phenyl)-piperidin-1-yl]-[4-(3,5-dichloro-phenyl)-1-(2-methoxy-ethyl)-1H-indol-3-yl]-methanone hydrochloride] | 164 |
| CCCn1cc(-c2cccc3c2c(C(=O)N2CCC(c4cc(CN)ccc4F)CC2)cn3CCOC)cn1 [Example 67, [4-(5-Aminomethyl-2-fluoro-phenyl)-piperidin-1-yl]-[1-(2-methoxy-ethyl)-4-(1-propyl-1H-pyrazol-4-yl)-1H-indol-3-yl]-methanone hydrochloride] | 12 |
| COCCn1cc(C(=O)N2CCC(c3cc(CN)ccc3F)CC2)c2c(OC(C)C)cccc21 [Example 68, [4-(5-Aminomethyl-2-fluoro-phenyl)-piperidin-1-yl]-[4-isopropoxy-1-(2-methoxy-ethyl)-1H-indol-3-yl]-methanone hydrochloride] | 35 |
| COCCn1cc(C(=O)N2CCC(c3cc(CN)ccc3F)CC2)c2c(-c3ccc(OC(F)(F)F)cc3)cccc21 [Example 69, [4-(5-Aminomethyl-2-fluoro-phenyl)-piperidin-1-yl]-[1-(2-methoxy-ethyl)-4-(4-trifluoromethoxy-phenyl)-1H-indol-3-yl]-methanone hydrochloride] | 400 |
| COCCn1cc(C(=O)N2CCC(c3cc(CN)ccc3F)CC2)c2c(-c3ccc(OC)cc3)cccc21 [Example 70, [4-(5-Aminomethyl-2-fluoro-phenyl)-piperidin-1-yl]-[1-(2-methoxy-ethyl)-4-(4-methoxy-phenyl)-1H-indol-3-yl]-methanone hydrochloride] | 21 |
| COCCn1cc(C(=O)N2CCC(c3cc(CN)ccc3F)CC2)c2c(-c3ccc(F)cc3)cccc21 [Example 71, [4-(5-Aminomethyl-2-fluoro-phenyl)-piperidin-1-yl]-[4-(4-fluoro-phenyl)-1-(2-methoxy-ethyl)-1H-indol-3-yl]-methanone hydrochloride] | 49 |
| COCCn1cc(C(=O)N2CCC(c3cc(CN)ccc3F)CC2)c2c(-c3cccc(O)c3)cccc21 [Example 72, [4-(5-Aminomethyl-2-fluoro-phenyl)-piperidin-1-yl]-[4-(3-hydroxy-phenyl)-1-(2-methoxy-ethyl)-1H-indol-3-yl]-methanone hydrochloride] | 13 |
| COCCn1cc(C(=O)N2CCC(c3cc(CN)ccc3F)CC2)c2c(N)cccc21 [Example 75, [4-(5-Aminomethyl-2-fluoro-phenyl)-piperidin-1-yl]-[4-amino-1-(2-methoxy-ethyl)-1H-indol-3-yl]-methanone hydrochloride] | 59 |
| CNc1cccc2c1c(C(=O)N1CCC(c3cc(CN)ccc3F)CC1)cn2CCOC [Example 76, [4-(5-Aminomethyl-2-fluoro-phenyl)-piperidin-1-yl]-[4-methylamino-1-(2-methoxy-ethyl)-1H-indol-3-yl]-methanone hydrochloride] | 211 |
| COCCn1cc(C(=O)N2CCC(c3cc(CN)ccc3F)CC2)c2c(N(C)C)cccc21 [Example 77, [4-(5-Aminomethyl-2-fluoro-phenyl)-piperidin-1-yl]-[4-dimethylamino-1-(2-methoxy-ethyl)-1H-indol-3-yl]-methanone hydrochloride] | 57 |
| NCc1ccc(F)c(C2CCN(C(=O)c3cn(CCOC(F)(F)F)c4cccc(Br)c34)CC2)c1 [Example 79, 4-(5-Aminomethyl-2-fluoro-phenyl)-piperidin-1-yl]-[4-bromo-1-(2-trifluoromethoxy-ethyl)-1H-indol-3-yl]-methanone hydrochloride] | 935 |
| NCc1ccc(F)c(C2CCN(C(=O)c3cn(CCOC(F)(F)F)c4cccc(-c5ccccc5)c34)CC2)c1 [Example 80, [4-(5-Aminomethyl-2-fluoro-phenyl)-piperidin-1-yl]-[4-phenyl-1-(2-trifluoromethoxy-ethyl)-1H-indol-3-yl]-methanone hydrochloride] | 961 |
| NCc1ccc(F)c(C2CCN(C(=O)c3cn(CCOC(F)(F)F)c4ccccc34)CC2)c1 [Example 81, hydrochloride] | 224 |
| NCc1ccc(F)c(C2CCN(C(=O)c3cn(CCOC(F)(F)F)c4c(F)cccc34)CC2)c1 [Example 86, [4-(5-Aminomethyl-2-fluoro-phenyl)-piperidin-1-yl]-[7-fluoro-1-(2-trifluoromethoxy-ethyl)-1H-indol-3-yl]-methanone hydrochloride] | 80 |
| NCc1ccc(F)c(C2CCN(C(=O)c3cn(CCOC(F)(F)F)c4c(Cl)cccc34)CC2)c1 [Example 87, hydrochloride] | 207 |
| Cc1cccc2c(C(=O)N3CCC(c4cc(CN)ccc4F)CC3)cn(CCOC(F)(F)F)c12 [Example 88, hydrochloride] | 239 |
| NCc1ccc(F)c(C2CCN(C(=O)c3cn(CCOC(F)(F)F)c4cccc(F)c34)CC2)c1 [Example 90, [4-(5-Aminomethyl-2-fluoro-phenyl)-piperidin-1-yl]-[4-fluoro-(2-trifluoromethoxy-ethyl)-1H-indol-3-yl]-methanone hydrochloride] | 396 |
| COCCn1cc(C(=O)N2CCC(c3cc(CN)ccc3F)CC2)c2c(C(=O)N(C)C)cccc21 [Example 91, 3-[4-(5-Aminomethyl-2-fluoro-phenyl)-piperidine-1-carbonyl]-1-(2-methoxy-ethyl)-1H-indol-4-carboxylic acid dimethylamide hydrochloride] | 20 |
| NCc1ccc(F)c(C2CCN(C(=O)c3cn(CCOC(F)(F)F)c4cccc(-c5cncnc5)c34)CC2)c1 [Example 92, [4-(5-Aminomethyl-2-fluoro-phenyl)-piperidin-1-yl]-[4-pyrimidin-5-yl-1-(2-trifluoromethoxy-ethyl)-1H-indol-3-yl]-methanone dihydrochloride] | 90 |
| COCCn1cc(C(=O)N2CCC(c3cc(CN)ccc3F)CC2)c2c(C(=O)N3CCCCC3)cccc21 [Example 94, [4-(5-Aminomethyl-2-fluoro-phenyl)-piperidine-1-yl]-[1-(2-methoxy-ethyl)-4-(piperidine-1-carbonyl)-1H-indol-3-yl]-methanone hydrochloride] | 21 |

same assay, conditions: Tryptase Ki (nM), additional value in parentheses tagged "719" (code not explained)

| Compound | Ki [nM] |
| --- | --- |
| COCCn1cc(C(=O)N2CCC(c3cc(CN)ccc3F)CC2)c2c(C(=O)N(C)C)cccc21 [Example 91, 3-[4-(5-Aminomethyl-2-fluoro-phenyl)-piperidine-1-carbonyl]-1-(2-methoxy-ethyl)-1H-indol-4-carboxylic acid dimethylamide hydrochloride] | 54 |

same assay, conditions: Tryptase Ki (nM), additional value in parentheses tagged "8923" (code not explained)

| Compound | Ki [nM] |
| --- | --- |
| COCCn1cc(C(=O)N2CCC(c3cc(CN)ccc3F)CC2)c2c(C(=O)N(C)C)cccc21 [Example 91, 3-[4-(5-Aminomethyl-2-fluoro-phenyl)-piperidine-1-carbonyl]-1-(2-methoxy-ethyl)-1H-indol-4-carboxylic acid dimethylamide hydrochloride] | 28 |

Reference: patent US20120245161A1 (SANOFI, priority 2009, published 2012)
